Test results reported in PMC4026310 (Drug Design, Development and Therapy, 2014).

How the values were obtained:
P-gp = settings: patients receiving quinidine (P-gp inhibitor) treatment; cited from earlier work
liver = experiment: In situ liver perfusion; format: in vivo, Sprague Dawley rats; settings: rat in situ liver perfusion, within 120 minutes

| Effect of inhibitor on the elimination rate of periplocin in the perfusate (liver) | Structure (SMILES) | Patients showing an obvious increase in the blood concentration of digoxin (P-gp) [%] |
| --- | --- | --- |
|  | C=C[C@H]1C[N@@]2CC[C@H]1C[C@@H]2[C@@H](O)c1ccnc2ccc(OC)cc12 [quinidine] | 90 |
| significantly reduced | CO[C@H]1/C=C/O[C@@]2(C)Oc3c(C)c(O)c4c(O)c(c(/C=N/N5CCN(C)CC5)c(O)c4c3C2=O)NC(=O)/C(C)=C\C=C\[C@H](C)[C@H](O)[C@@H](C)[C@@H](O)[C@@H](C)[C@H](OC(C)=O)[C@@H]1C [rifampicin] |  |
